# Results taken from PMC9133015 (Nature Communications, 2022).
# Several values for one entry are separate records, joined by “and”; a condition that tells them apart may be missing. Identical values can stand only once.
# Assays:
# Assay in all cases: Kinase inhibitor specificity profiling (Reaction Biology Corporation)
# Format in all cases: biochemical
# Design in all cases: % Enzyme Activity (relative to DMSO controls): concentration or dose not given beside the values
# [1] = biological target: T1, panel of 370 protein kinases (Homo sapiens, UniProt Q08881); conditions: kinase ITK
# T1 construct: purchased Reaction Biology Corporation (assay service)
# [2] = biological target: T2, panel of 370 protein kinases (Homo sapiens, UniProt Q05513); conditions: 2 h, kinase PKCzeta; read-out: % Enzyme Activity (relative to DMSO controls)
# T2 construct: purchased Reaction Biology Corporation (assay service)
# [3] = biological target: T3, panel of 370 protein kinases (Homo sapiens, UniProt Q9NY57); conditions: 2 h, kinase STK32B/YANK2; read-out: % Enzyme Activity (relative to DMSO controls)
# T3 construct: purchased Reaction Biology Corporation (assay service)
# [4] = biological target: T4, panel of 370 protein kinases (Homo sapiens, UniProt Q6XUX3); conditions: 2 h, kinase RIPK5; read-out: % Enzyme Activity (relative to DMSO controls)
# T4 construct: purchased Reaction Biology Corporation (assay service)
# [5] = biological target: T5, panel of 370 protein kinases (Homo sapiens, UniProt P41279); conditions: 2 h, kinase COT1/MAP3K8; read-out: % Enzyme Activity (relative to DMSO controls)
# T5 construct: purchased Reaction Biology Corporation (assay service)
# [6] = biological target: T6, panel of 370 protein kinases (Homo sapiens, UniProt Q99759); conditions: 2 h, kinase MEKK3; read-out: % Enzyme Activity (relative to DMSO controls)
# T6 construct: purchased Reaction Biology Corporation (assay service)
# [7] = biological target: T7, panel of 370 protein kinases (Homo sapiens, UniProt P57078); conditions: 2 h, kinase RIPK4; read-out: % Enzyme Activity (relative to DMSO controls)
# T7 construct: purchased Reaction Biology Corporation (assay service)
# [8] = biological target: T8, panel of 370 protein kinases (Homo sapiens, UniProt Q16566); conditions: 2 h, kinase CAMK4; read-out: % Enzyme Activity (relative to DMSO controls)
# T8 construct: purchased Reaction Biology Corporation (assay service)
# [9] = biological target: T9, panel of 370 protein kinases (Homo sapiens, UniProt O75914); conditions: 2 h, kinase PAK3; read-out: % Enzyme Activity (relative to DMSO controls)
# T9 construct: purchased Reaction Biology Corporation (assay service)
# [10] = biological target: T10, panel of 370 protein kinases (Homo sapiens, UniProt Q9P1W9); conditions: 2 h, kinase PIM2; read-out: % Enzyme Activity (relative to DMSO controls)
# T10 construct: purchased Reaction Biology Corporation (assay service)
# [11] = biological target: T11, panel of 370 protein kinases (Homo sapiens, UniProt P37173); conditions: 2 h, kinase TGFBR2; read-out: % Enzyme Activity (relative to DMSO controls)
# T11 construct: purchased Reaction Biology Corporation (assay service)
# [12] = biological target: T12, panel of 370 protein kinases (Homo sapiens, UniProt Q02750); conditions: 2 h, kinase MEK1; read-out: % Enzyme Activity (relative to DMSO controls)
# T12 construct: purchased Reaction Biology Corporation (assay service)
# [13] = biological target: T13, panel of 370 protein kinases (Homo sapiens, UniProt P06239); conditions: 2 h, kinase LCK; read-out: % Enzyme Activity (relative to DMSO controls)
# T13 construct: purchased Reaction Biology Corporation (assay service)
# [14] = biological target: T14, panel of 370 protein kinases (Homo sapiens, UniProt P09619); conditions: 2 h, kinase PDGFRb; read-out: % Enzyme Activity (relative to DMSO controls)
# T14 construct: purchased Reaction Biology Corporation (assay service)
# [15] = biological target: T15, panel of 370 protein kinases (Homo sapiens, UniProt P51617); conditions: 2 h, kinase IRAK1; read-out: % Enzyme Activity (relative to DMSO controls)
# T15 construct: purchased Reaction Biology Corporation (assay service)
# [16] = biological target: T16, panel of 370 protein kinases (Homo sapiens, UniProt O14757); conditions: kinase CHK1
# T16 construct: purchased Reaction Biology Corporation (assay service)
# [17] = biological target: T17, panel of 370 protein kinases (Homo sapiens, UniProt P36896); conditions: 2 h, kinase ALK4/ACVR1B; read-out: % Enzyme Activity (relative to DMSO controls)
# T17 construct: purchased Reaction Biology Corporation (assay service)
# [18] = biological target: T18, panel of 370 protein kinases (Homo sapiens, UniProt Q8NE63); conditions: 2 h, kinase HIPK4; read-out: % Enzyme Activity (relative to DMSO controls)
# T18 construct: purchased Reaction Biology Corporation (assay service)
# [19] = biological target: T19, panel of 370 protein kinases (Homo sapiens, UniProt Q13882); conditions: 2 h, kinase BRK; read-out: % Enzyme Activity (relative to DMSO controls)
# T19 construct: purchased Reaction Biology Corporation (assay service)
# [20] = biological target: T20, panel of 370 protein kinases (Homo sapiens, UniProt P11362); conditions: 2 h, kinase FGFR1; read-out: % Enzyme Activity (relative to DMSO controls)
# T20 construct: purchased Reaction Biology Corporation (assay service)
# [21] = biological target: T21, panel of 370 protein kinases (Homo sapiens, UniProt Q15746); conditions: 2 h, kinase MLCK/MYLK; read-out: % Enzyme Activity (relative to DMSO controls)
# T21 construct: purchased Reaction Biology Corporation (assay service)
# T1 sequence (Q08881 whole entry): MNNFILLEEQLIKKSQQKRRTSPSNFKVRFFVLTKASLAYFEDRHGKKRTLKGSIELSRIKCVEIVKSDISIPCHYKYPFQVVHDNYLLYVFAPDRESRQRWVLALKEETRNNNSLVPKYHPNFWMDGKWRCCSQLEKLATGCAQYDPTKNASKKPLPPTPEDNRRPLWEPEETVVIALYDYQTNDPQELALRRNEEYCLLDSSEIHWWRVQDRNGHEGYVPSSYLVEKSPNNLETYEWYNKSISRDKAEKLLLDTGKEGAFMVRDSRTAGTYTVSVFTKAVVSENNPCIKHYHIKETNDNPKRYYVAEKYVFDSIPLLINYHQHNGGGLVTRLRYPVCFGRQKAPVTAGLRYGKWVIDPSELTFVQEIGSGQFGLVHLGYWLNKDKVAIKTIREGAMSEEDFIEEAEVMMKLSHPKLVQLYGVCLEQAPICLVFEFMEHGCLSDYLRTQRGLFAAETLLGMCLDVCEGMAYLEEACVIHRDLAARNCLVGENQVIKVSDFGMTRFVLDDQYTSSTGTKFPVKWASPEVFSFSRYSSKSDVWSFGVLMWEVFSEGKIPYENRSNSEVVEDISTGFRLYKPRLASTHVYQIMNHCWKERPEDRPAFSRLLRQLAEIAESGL
# T16 sequence (O14757 whole entry): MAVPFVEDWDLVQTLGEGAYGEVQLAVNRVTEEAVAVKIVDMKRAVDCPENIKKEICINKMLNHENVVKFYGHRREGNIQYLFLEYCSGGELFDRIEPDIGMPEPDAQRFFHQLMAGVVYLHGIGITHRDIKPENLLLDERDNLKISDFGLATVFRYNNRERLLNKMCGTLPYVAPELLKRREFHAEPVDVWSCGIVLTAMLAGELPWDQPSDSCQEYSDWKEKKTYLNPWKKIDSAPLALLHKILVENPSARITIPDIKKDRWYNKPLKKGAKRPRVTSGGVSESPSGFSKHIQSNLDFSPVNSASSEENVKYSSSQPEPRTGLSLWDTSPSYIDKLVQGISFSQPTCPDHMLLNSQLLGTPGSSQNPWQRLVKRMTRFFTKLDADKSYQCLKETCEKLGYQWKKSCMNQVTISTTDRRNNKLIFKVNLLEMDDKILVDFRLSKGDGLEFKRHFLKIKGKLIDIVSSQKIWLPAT
# T20 sequence (P11362 22-822): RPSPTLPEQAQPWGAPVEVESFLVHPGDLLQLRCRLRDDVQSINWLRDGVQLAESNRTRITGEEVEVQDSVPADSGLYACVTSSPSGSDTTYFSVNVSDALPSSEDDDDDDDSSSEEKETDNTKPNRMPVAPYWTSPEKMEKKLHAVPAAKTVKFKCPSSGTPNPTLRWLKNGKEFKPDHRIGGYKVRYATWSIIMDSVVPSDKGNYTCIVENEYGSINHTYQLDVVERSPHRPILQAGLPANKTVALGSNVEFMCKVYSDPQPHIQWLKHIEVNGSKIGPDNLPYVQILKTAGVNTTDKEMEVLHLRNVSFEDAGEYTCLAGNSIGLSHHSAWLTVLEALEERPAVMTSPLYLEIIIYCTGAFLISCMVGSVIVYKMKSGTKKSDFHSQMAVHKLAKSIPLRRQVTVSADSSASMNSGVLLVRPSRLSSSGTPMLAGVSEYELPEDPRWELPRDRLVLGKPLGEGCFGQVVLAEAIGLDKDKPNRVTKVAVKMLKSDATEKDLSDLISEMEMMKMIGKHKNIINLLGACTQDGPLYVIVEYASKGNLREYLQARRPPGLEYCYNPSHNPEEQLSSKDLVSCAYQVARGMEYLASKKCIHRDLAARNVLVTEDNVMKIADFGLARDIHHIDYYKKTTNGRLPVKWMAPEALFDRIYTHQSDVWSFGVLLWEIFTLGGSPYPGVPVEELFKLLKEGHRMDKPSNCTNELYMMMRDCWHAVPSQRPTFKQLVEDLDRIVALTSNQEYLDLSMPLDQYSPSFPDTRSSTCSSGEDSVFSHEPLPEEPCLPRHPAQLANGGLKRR
# T3 sequence (Q9NY57 whole entry): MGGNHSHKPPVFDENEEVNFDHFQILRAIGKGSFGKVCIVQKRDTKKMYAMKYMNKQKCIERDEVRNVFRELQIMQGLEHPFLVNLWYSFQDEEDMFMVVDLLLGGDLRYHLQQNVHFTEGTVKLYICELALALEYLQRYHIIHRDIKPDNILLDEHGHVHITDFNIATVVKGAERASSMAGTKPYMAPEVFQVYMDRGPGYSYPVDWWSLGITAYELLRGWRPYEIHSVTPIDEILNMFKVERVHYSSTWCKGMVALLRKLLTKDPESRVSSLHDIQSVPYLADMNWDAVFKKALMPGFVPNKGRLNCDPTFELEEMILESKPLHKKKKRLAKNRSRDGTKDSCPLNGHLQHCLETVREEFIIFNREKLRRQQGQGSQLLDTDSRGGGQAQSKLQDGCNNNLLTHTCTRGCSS
# T9 sequence (O75914 whole entry): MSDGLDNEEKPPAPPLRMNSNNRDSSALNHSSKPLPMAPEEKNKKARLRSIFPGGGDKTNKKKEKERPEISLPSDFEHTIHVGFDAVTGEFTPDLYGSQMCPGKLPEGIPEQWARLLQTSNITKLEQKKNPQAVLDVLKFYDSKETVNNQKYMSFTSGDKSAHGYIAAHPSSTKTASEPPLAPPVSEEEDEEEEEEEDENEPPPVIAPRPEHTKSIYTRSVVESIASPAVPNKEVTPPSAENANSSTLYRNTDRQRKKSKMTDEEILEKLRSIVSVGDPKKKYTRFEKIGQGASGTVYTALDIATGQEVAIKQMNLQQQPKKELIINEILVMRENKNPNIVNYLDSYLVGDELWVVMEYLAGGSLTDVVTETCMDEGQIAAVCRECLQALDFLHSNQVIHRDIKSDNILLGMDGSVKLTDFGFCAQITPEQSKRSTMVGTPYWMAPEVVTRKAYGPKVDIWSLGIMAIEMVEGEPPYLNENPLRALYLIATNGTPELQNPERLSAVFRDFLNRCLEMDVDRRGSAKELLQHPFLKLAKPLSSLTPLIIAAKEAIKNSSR
# T6 sequence (Q99759 whole entry): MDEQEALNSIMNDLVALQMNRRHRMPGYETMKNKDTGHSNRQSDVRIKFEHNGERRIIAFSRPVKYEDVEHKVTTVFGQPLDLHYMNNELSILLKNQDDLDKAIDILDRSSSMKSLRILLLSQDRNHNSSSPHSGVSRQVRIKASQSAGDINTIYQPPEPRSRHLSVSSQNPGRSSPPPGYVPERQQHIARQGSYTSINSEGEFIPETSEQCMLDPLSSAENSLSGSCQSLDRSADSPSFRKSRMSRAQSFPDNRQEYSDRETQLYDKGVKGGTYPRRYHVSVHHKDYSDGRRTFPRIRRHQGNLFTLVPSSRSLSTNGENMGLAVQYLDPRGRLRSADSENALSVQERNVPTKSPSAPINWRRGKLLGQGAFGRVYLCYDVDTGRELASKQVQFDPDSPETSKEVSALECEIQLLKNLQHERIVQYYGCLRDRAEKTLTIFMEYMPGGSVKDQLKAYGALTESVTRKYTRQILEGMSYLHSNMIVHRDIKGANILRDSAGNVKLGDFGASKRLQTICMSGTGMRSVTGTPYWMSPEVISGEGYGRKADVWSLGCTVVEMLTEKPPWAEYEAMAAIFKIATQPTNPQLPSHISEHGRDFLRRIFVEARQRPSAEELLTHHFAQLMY
# T14 sequence (P09619 33-1106): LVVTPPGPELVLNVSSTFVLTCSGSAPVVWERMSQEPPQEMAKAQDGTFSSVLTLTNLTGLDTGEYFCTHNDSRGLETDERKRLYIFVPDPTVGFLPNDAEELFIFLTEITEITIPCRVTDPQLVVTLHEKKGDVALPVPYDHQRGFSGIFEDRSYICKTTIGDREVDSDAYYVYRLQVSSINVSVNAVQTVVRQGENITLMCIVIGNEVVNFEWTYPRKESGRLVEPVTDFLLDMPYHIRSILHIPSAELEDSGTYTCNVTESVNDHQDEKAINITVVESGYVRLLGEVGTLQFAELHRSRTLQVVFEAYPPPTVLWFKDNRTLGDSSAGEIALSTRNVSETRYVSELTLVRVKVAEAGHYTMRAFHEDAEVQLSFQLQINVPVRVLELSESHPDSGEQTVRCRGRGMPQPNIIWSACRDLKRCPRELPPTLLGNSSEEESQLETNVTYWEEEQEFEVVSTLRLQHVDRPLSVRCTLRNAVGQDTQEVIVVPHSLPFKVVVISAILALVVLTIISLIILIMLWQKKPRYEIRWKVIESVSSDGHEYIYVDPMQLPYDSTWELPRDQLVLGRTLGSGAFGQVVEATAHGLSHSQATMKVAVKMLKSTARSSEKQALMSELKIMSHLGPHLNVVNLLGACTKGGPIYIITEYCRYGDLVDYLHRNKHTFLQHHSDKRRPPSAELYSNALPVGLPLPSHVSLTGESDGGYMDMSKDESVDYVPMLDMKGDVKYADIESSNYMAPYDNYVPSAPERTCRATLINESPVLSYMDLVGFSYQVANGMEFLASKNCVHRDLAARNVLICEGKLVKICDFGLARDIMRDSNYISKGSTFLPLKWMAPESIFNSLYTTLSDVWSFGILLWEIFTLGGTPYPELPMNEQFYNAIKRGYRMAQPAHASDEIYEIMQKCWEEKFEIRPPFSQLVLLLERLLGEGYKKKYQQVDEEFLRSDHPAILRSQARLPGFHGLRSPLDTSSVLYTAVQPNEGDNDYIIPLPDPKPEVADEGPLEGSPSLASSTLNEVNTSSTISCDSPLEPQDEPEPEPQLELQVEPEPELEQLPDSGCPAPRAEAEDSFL
# T10 sequence (Q9P1W9 whole entry): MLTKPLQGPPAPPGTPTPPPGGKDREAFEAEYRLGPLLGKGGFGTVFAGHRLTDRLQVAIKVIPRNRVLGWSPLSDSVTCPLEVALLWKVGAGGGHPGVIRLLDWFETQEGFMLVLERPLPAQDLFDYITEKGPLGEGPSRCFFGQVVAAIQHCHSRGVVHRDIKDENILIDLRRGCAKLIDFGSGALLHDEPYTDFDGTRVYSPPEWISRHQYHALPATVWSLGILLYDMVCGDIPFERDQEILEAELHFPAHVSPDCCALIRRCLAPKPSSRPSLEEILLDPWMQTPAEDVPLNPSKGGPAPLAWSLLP
smiles,measurement,setting,value
CCN1CCN(C(=O)c2ccc(Nc3ncc(F)c(-c4ccc5nc(N(C)C)sc5c4)n3)nc2)CC1 [YK-2-69],% Enzyme Activity (relative to DMSO controls),[1],117.90% and 109.49%
same,remaining activity at 1 µM,[2],83.8%
same,remaining activity at 1 µM,[3],103%
same,remaining activity at 1 µM,[4],111%
same,remaining activity at 1 µM,[5],96.1%
same,remaining activity at 1 µM,[6],106%
same,remaining activity at 1 µM,[7],92%
same,remaining activity at 1 µM,[8],101%
same,remaining activity at 1 µM,[9],160%
same,remaining activity at 1 µM,[10],90.4%
same,remaining activity at 1 µM,[11],104%
same,remaining activity at 1 µM,[12],100%
same,remaining activity at 1 µM,[13],101%
same,remaining activity at 1 µM,[14],97.5%
same,remaining activity at 1 µM,[15],90.6%
same,% Enzyme Activity (relative to DMSO controls),[16],90.61% and 88.71%
same,remaining activity at 1 µM,[17],102%
same,remaining activity at 1 µM,[18],56.5%
same,remaining activity at 1 µM,[19],97.7%
same,remaining activity at 1 µM,[20],76.5%
same,remaining activity at 1 µM,[21],97.5%
